Consider 8 molecules from US20030176436A1, “Novel heterocyclic compounds as selective bacterial DHFR inhibitors and their uses thereof” (priority 2001, published 2003).

One experiment deals with T1, human DHFR (hDHFR) (Homo sapiens, UniProt P00374).
T1 construct: result in the amplification of a 186 amino acid hDHFR coding region; made in house; host or cells: E. coli Top10
T1 sequence (P00374 1-187): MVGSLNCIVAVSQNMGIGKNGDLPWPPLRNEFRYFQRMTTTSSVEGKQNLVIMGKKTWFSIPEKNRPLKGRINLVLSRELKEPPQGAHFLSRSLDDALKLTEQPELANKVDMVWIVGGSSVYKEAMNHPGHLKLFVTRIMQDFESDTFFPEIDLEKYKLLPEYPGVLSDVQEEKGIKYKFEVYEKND
The experiment can be described thus: DHFR enzyme assay, Ki determination, human DHFR. The conditions noted are these: Table 3. The experiment is classed as biochemical. On the procedure:
The human DHFR cDNA was cloned by PCR from the Human Universal Quick-clone™ cDNA purchased from Clontech.
The PCR fragment was digested with restriction enzymes NdeI and HindIII, and then ligated into a derivative of the pKK223-3 expression vector (Amersham Pharmacia). The final expression vector (pFW96.2) was transformed into E. coli Top10 F40 and hDHFR protein was induced by the addition of 1 mM IPTG followed by incubation at 37° C. for 4 hrs. Recombinant human DHFR was purified based on a previously published procedure (2).
(§1) Dihydrofolic acid and NADPH were purchased from Sigma. Enzyme assays were adapted for microtitre format from a previously published procedure (2, 3). All assays were performed in a 250 μl volume in 96-well microtitre plates. Typical assays consisted of 20 nM DHFR (human or E. coli), 100 μM NADPH, and 50 μM dihydrofolic acid in 100 mM HEPES pH 8, 10 mM KCl, and 10 mM MgCl2. The assay was monitored spectrophotometrically for the conversion of NADPH to NADP+, which results in a decrease in absorbance at 340 nm.
Five microliters of inhibitor compound in DMSO was added to 120 μl of enzyme solution (40 nM DHFR and 200 μM NADPH). The reaction was initiated by the addition of 125 μl of 100 μM dihydrofolic acid. The final concentrations in the assay were 20 nM DHFR, 100 μM NADPH, 50 μM dihydrofolic acid, and a range of 500 μM to 20 nM inhibitor compound. The final DMSO concentration was 2% of the total volume. Reactions were monitored as described above.
V=(Vmax[S])/(Km(1+I/Ki)+[S]), where S=dihydrofolate, Km=Michaelis constant for dihydrofolate, I=inhibitor concentration.

A further experiment deals with T2, bacterial DHFR (bDHFR) (Escherichia coli, UniProt P0ABQ4).
T2 construct: gift of Eric Brown, McMaster University
The experiment can be described thus: DHFR enzyme assay, Ki determination, bacterial DHFR. The experiment is classed as biochemical, E. coli. The conditions noted are these: Table 3; read-out: bDHFR Ki. On the procedure:
Human and Bacterial DHFR: E. coli DHFR was kindly provided by Eric Brown of MacMaster University.
as §1
The reaction was initiated by the addition of 125 μl of 100 μM dihydrofolic acid. The final concentrations in the assay were 20 nM DHFR, 100 μM NADPH, 50 μM dihydrofolic acid, and a range of 500 μM to 20 nM inhibitor compound. The final DMSO concentration was 2% of the total volume. Reactions were monitored as described above.

The subject of a further experiment is H. influenzae. In words: Microdilution antimicrobial susceptibility test (MIC). The format is cell-based. The following applies: Haemophilus influenzae, read-out: MIC H. influenzae. On the procedure:
(§2) Stock solutions of tested compounds were prepared in N,N-dimethylformamide (DMF) at a concentration of 5 mg/mL. Working solutions of the tested compounds were then prepared from the stock solutions, in Mueller-Hinton broth (MHB) with a starting concentration of 64 μg/mL.
(§3) Bacterial inocula were prepared from overnight culture (i.e., one fresh colony from agar plate in 5 ml MHB; H. influenzae was grown in MHB with the addition of yeast extract, haematin, and NAD), centrifuged 2×5 min/3000 rpm (for S. pneumoniae and H. influenzae, 2×10 min/3000 rpm), and dispensed in 5 ml of fresh MHB each time, such that the bacterial suspension is diluted to obtain 100 colony forming units (cfu) in a microplate well (100 μl total volume).
(§4) Microplate wells were filled with two-fold dilutions of test compound (50 μl), starting with 64 μg/ml. Wells were then filled with 50 μl of bacterial inoculum (final volume: 100 μl/well). The plates were incubated at 37° C. for 18-24 hours (S. pneumoniae was grown in a CO2-enriched atmosphere).

The subject of the next experiment is E. faecalis. The description is as above. The format is cell-based. The conditions noted are these: Enterococcus faecalis; Table 2; 90% inhibition of growth. On the procedure: as §2, §3, §4
For a further experiment, the system named is P. aeruginosa. The experiment is described as above. The format is cell-based. The conditions noted are these: Pseudomonas aeruginosa; Table 2; 90% inhibition of growth. On the procedure:
as §2, §3, §4

The next experiment relates to E. coli. The description is as above. The format is cell-based. The conditions noted are these: Escherichia coli; Table 2; 90% inhibition of growth. On the procedure:
as §2, §3, §4

The subject of another experiment is M. catarrhalis. The description is as above. The following applies: Moraxella catarrhalis; Table 2; 90% inhibition of growth. The format is cell-based. On the procedure: as §2, §3, §4
A further experiment deals with S. pneumoniae. The experiment is described as above. The experiment is classed as cell-based. The conditions noted are these: Streptococcus pneumoniae; Table 2; 90% inhibition of growth. On the procedure: as §2, §3, §4
In another experiment the test system is S. aureus. The description is as above. The experiment is classed as cell-based. The conditions noted are these: Staphylococcus aureus; Table 2; 90% inhibition of growth; read-out: MIC S. aureus. On the procedure: as §2, §3, §4
The test system of a further experiment is S. cerevisiae. The experiment can be described thus: Microdilution susceptibility test (MIC), yeast as indicator of cytotoxicity. The format is cell-based. The following applies: Saccharomyces cerevisiae; Table 2; 90% inhibition of growth.
From the text: The following table of compounds of one aspect of the invention have potent antimicrobial activity against S. aureus bacteria and are anticipated to have physical-chemical properties similar to those of orally absorbed and bioavailable drugs and drug-like compounds. Antibacterial activity for a variety of bacterial species are shown (S. aureus, S. pneumoniae, E. faecalis, M. catarrhalis, and H. influenzae). The yeast cell (S. cerevisiae) in this panel of organisms is an indicator of potential cytotoxicity in mammalian cells.
as §2, §4

Setting [1] is: Table 2, 90% inhibition of growth.

Values after ≈ are worked out from the molar mass of the structure shown. Read-outs that look alike come from different tables or passages of the source.

Consider `Nc1nc(N)c2nc(CNc3cc(Cl)cc(Cl)c3)cnc2n1` [Compound 11], for which the Ki on human DHFR (hDHFR) was above 5000 nM; at bacterial DHFR (bDHFR) it was 500 to 999 nM. Besides, the MIC was above 64 µg/mL in the experiment with H. influenzae; below 2 µg/mL against E. faecalis; above 64 µg/mL in the experiment with P. aeruginosa; above 64 µg/mL in the experiment with E. coli; below 2 µg/mL against M. catarrhalis; below 2 µg/mL against S. pneumoniae. The MIC in the experiment on S. aureus is below 2 µg/mL; against S. cerevisiae it was above 64 µg/mL.

With `Nc1nc(N)c2nc(CNc3ccc([N+](=O)[O-])cc3O)cnc2n1` [Compound 12], the figures for the Ki on human DHFR (hDHFR) and on bacterial DHFR (bDHFR) were 1000 to 5000 nM and 100 to 499 nM, respectively. The MIC in the experiment with H. influenzae (setting [1]) is 2 to 8 µg/mL (≈ 6.09 to 24.4 µM); against P. aeruginosa, above 64 µg/mL; against E. coli, above 64 µg/mL; in the experiment with M. catarrhalis, 16 to 64 µg/mL (≈ 48.7 to 195 µM); against S. pneumoniae it was below 2 µg/mL; in the experiment on S. aureus it was above 64 µg/mL. In the experiment on S. cerevisiae, this molecule had an MIC above 64 µg/mL.

For `CN(Cc1cnc2nc(N)nc(N)c2n1)c1ccccc1` [Compound 9], the Ki was above 5000 nM at human DHFR (hDHFR) and 100 to 499 nM on bacterial DHFR (bDHFR). Further, the MIC in the experiment on H. influenzae (setting [1]) is below 2 µg/mL; in the experiment with E. faecalis it was below 2 µg/mL; against P. aeruginosa, above 64 µg/mL; in the experiment with E. coli, above 64 µg/mL; against M. catarrhalis, 2 to 8 µg/mL (≈ 7.11 to 28.4 µM); against S. pneumoniae, below 2 µg/mL. Also, the MIC in the experiment on S. aureus is 2 to 8 µg/mL (≈ 7.11 to 28.4 µM); against S. cerevisiae it was above 64 µg/mL.

As to `Nc1nc(N)c2nc(CNc3ccc4nc(S)sc4c3)cnc2n1` [Compound 10], the Ki on human DHFR (hDHFR) is above 5000 nM; on bacterial DHFR (bDHFR) it was 100 to 499 nM. Also, the MIC in the experiment with H. influenzae (setting [1]) is 16 to 64 µg/mL (≈ 44.9 to 180 µM); with E. faecalis it was below 2 µg/mL; with P. aeruginosa, above 64 µg/mL; in the experiment with E. coli it was above 64 µg/mL; in the experiment on M. catarrhalis, below 2 µg/mL; against S. pneumoniae it was 2 to 8 µg/mL (≈ 5.61 to 22.4 µM). The MIC in the experiment on S. aureus fell in the range of 2 to 8 µg/mL (≈ 5.61 to 22.4 µM); in the experiment on S. cerevisiae, 16 to 64 µg/mL (≈ 44.9 to 180 µM).

Take `Nc1nc(N)c2nc(CNc3cccc(OCc4ccccc4)c3)cnc2n1` [Compound 16]: the Ki was above 5000 nM at human DHFR (hDHFR) and below 100 nM at bacterial DHFR (bDHFR). Besides, the MIC with H. influenzae (setting [1]) was above 64 µg/mL; in the experiment on E. faecalis, below 2 µg/mL; with P. aeruginosa, above 64 µg/mL; against E. coli, above 64 µg/mL; in the experiment on M. catarrhalis, below 2 µg/mL; against S. pneumoniae, below 2 µg/mL. Further, the MIC in the experiment with S. aureus is below 2 µg/mL; in the experiment on S. cerevisiae, above 64 µg/mL.

For the molecule `CN(Cc1cnc2nc(N)nc(N)c2n1)c1ccc(C(=O)NCCCCN)cc1` [Compound 2], the Ki on human DHFR (hDHFR) is 1000 to 5000 nM; at bacterial DHFR (bDHFR), 100 to 499 nM.

For `Nc1nc(N)c2nc(CNc3cccc([N+](=O)[O-])c3)cnc2n1` [Compound 7], the Ki on human DHFR (hDHFR) is above 5000 nM; on bacterial DHFR (bDHFR), 100 to 499 nM. Moreover, the MIC in the experiment on H. influenzae (setting [1]) was below 2 µg/mL; in the experiment with E. faecalis, below 2 µg/mL; against P. aeruginosa it was above 64 µg/mL; against E. coli, above 64 µg/mL; against M. catarrhalis, below 2 µg/mL; with S. pneumoniae it was below 2 µg/mL. The MIC with S. aureus is below 2 µg/mL; against S. cerevisiae, above 64 µg/mL.

Regarding `COC(=O)c1ccc(N(C)Cc2cnc3nc(N)nc(N)c3n2)cc1` [Compound 17], at bacterial DHFR (bDHFR), the Ki is below 100 nM. The MIC in the experiment on H. influenzae (setting [1]) was below 2 µg/mL; with E. faecalis it was below 2 µg/mL; against P. aeruginosa, above 64 µg/mL; with E. coli it was above 64 µg/mL; with M. catarrhalis, below 2 µg/mL; in the experiment with S. pneumoniae it was below 2 µg/mL. In addition, the values for the MIC in the experiment on S. aureus and against S. cerevisiae were below 2 µg/mL and above 64 µg/mL, respectively.
